Read-outs that look alike come from different tables or passages of the source. *1 amine or outer side, *2 acyl side, *3 side chain or, on linkers, in order; H or OH if unused. Where a SMILES comes first, the peptide text is derived from it. Bridges are numbered along the chain shown (N, C = ends). [ ]: non-standard residue; d: D form. Acbc(trans-1,3) = O=C([C@H]1C[C@H](N[*:1])C1)[*:2]; Acbc(cis-1,3) = O=C([C@H]1C[C@@H](N[*:1])C1)[*:2]; X1 = O=C([C@@H]1CCC[C@@H]1N[*:1])[*:2]; Orn = NCCC[C@H](N)C(=O)O
Tests used:
[1] = biological target: T1, IFN-γ/IFNGR1 protein–protein interaction (Homo sapiens, UniProt P15260); experiment: IFNGR1 inhibition assay using AlphaLISA; type: biochemical; conditions: four-parameter dose–response fit, n = 3
T1 construct: purchased ACROBiosystems
T1 sequence (P15260 18-245 limits assumed): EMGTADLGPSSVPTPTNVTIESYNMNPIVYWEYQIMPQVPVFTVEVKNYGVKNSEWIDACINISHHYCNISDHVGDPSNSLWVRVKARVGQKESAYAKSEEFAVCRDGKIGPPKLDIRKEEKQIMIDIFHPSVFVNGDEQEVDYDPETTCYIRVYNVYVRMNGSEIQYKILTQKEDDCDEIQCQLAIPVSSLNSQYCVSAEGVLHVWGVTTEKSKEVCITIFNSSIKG
Method: IFNGR1 inhibition assay using AlphaLISA
The inhibitory activity of peptides against IFN-γ/IFNGR1 protein–protein interaction (PPI) was determined by AlphaLISA.5 Peptides, proteins, and beads were diluted in AlphaLISA immunoassay buffer (PerkinElmer, AL000C). 3.6 μL of 5 nM Fc-tagged IFNGR1 and 3.6 μL of synthetic peptides were mixed in AlphaPlate-384 Shallow Well (PerkinElmer) and preincubated at 25 °C for 10 min. 3.6 μL of 15 nM biotin-tagged IFN-γ was then added to the mix and incubated at 25 °C for 20 min. 3.6 μL each human IgG acceptor beads (PerkinElmer) and streptavidin donor beads (PerkinElmer) were added to the above mix and incubated at 25 °C for 30 min in dark place. Emission at 615 nm was measured […]
by EnSpire Multimode Plate Reader (PerkinElmer). The fraction of bound IFN-γ/IFNGR1 was calculated by the intensity of emission in the presence of peptide divided by that in the absence of […]
peptide. […]
Puromycin. Normocin, Blasticidin, Zeocin, and Puromycin were excluded when conducting the experiments. To evaluate the cellular activity of peptides, peptide mixtures were added to 50,000 cells/well in a flat-bottom 96-well plate and pre-incubated for 30 min at 37 °C before stimulation.
Subsequently, 1 ng/mL of recombinant IFN-γ (InvivoGen) was added to each well in a final reaction volume of 200 μL, followed by incubation for 20 h at 37 °C. 20 μL of supernatants from the induced cells was added to 180 μL Q U A N T I-Blue TM solution (InvivoGen). After further incubation for 3 h at 37 °C, the expression levels of the secreted embryonic alkaline phosphatase (SEAP) were determined by reading the O.D. at 650 nm on a Tecan M1000 PRO microplate reader (Tecan Group) and normalized to the non-treated well. IC50 value was analyzed by a normalized dose-response curve fitting by using GraphPad Prism 9.
HEK-DualTM IFN-γ cells were used for the cell viability assay. 10,000 cells/well were added to each well in a flat-bottom 96-well plate. After 24 h, peptide mixtures were added to each well in a final volume of 100 μL. After further incubation for 24 h, 10 μL CCK-8 reagent (Dojindo) was added to […]

[2] = Serum stability assay (LC/MS); type: in vitro ADME, human; conditions: for half-life: human
Method: (§1) Binding affinities of IA1 and IA2 against IFNGR1 were evaluated by surface plasmon resonance (SPR) (Table 1 and SI Figure S6A). […] To investigate the contribution of the N-terminal [yVPβ^1RR] motif and β^1 residue in IA1, three scrambled peptides IA1s1–3 and a variant IA1β^14A were synthesized and evaluated. […] We next evaluated inhibitory activities of IA1 and IA2 against the ligand–receptor PPI between IFN-γ and IFNGR1 using AlphaLISA (Table 1 and SI Figure S7).[37] […] We also determined the serum half-lives of IA1 and IA2, considering peptidase resistance as an important factor for therapeutic peptides.[24] A sample peptide and a peptidase-resistant internal standard peptide were coincubated in human serum at 37 °C, and the relative amount of the remaining sample peptide was estimated by LC/MS. […]
10–200 μM synthetic peptide and 5 μM serum-resistant internal standard peptide consisting only of D-amino acids (NH2-PEG5-wstndwstnd-PEG5-CONH2)3 were mixed and incubated in human serum (Cosmo Bio, 12181201) at 37 °C for up to 120 h. At each time point, 4 μL of the mixture was removed and quenched by adding 12 μl methanol. Following centrifugation (15,000 g, 4 °C, 5 min), 10 μL of the supernatant was mixed with 40 μl of 1% (v/v) TFA. Following centrifugation (15,000 g, 4 °C, 5 min), the supernatant was collected for LC/MS analysis, which used a reverse-phase column (ACQUITY UPLC BEH C18, 1.7 μm, 2.1 × 150 mm; Waters) and a Xevo G2-XS QTof system (Waters) with a linear gradient from 1% B to 61% B. Buffer A was water with 0.1% (v/v) formic acid; buffer B was acetonitrile with 0.1% (v/v) formic acid. The percentages of remaining peptides were determined by the peak area integration of the chromatograms. For tandem mass spectrometry, MS/MS spectra were acquired with a 0.2 s scan time, with 10−30 eV collision energy. The obtained LC/MS data was analyzed using MassLynx 4.1 (Waters). […]

Fc-tagged human IFNGR1 = biological target: T2, Fc-tagged human IFNGR1 (Homo sapiens, UniProt P15260); experiment: Binding kinetics and affinity to IFNGR1 by surface plasmon resonance (SPR); conditions: SPR, 25 °C, 1:1 binding model; for Kd: read-out: KD; for kon: single-cycle kinetics, read-out: ka
T2 construct: purchased ACROBiosystems
T2 sequence (P15260 18-489): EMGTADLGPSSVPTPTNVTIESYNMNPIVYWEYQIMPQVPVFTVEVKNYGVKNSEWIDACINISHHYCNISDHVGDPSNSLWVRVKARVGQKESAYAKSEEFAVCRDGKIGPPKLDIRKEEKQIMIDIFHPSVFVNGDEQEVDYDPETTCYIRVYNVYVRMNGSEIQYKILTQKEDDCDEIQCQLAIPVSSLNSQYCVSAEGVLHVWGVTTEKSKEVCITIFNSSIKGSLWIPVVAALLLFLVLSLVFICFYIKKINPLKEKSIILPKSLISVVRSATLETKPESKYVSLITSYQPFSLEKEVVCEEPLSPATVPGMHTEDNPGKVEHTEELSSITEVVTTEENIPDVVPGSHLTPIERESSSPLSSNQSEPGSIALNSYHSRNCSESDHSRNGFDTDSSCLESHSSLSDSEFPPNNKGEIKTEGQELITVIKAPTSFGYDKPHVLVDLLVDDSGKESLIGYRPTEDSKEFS
Method: as §1
Evaluation of binding affinity of peptides by surface plasmon resonance The binding affinities of selected peptides and IFNGR1 were analyzed by surface plasmon resonance (SPR) using a Biacore T200 instrument (Cytiva) at 25 °C with the following running buffer: 10 mM Tris-HCl (pH 8.0), 150 mM NaCl, 0.05% (v/v) Tween 20 , and 0.1% (v/v) DMSO. Fc-tagged IFNGR1 was immobilized on a series S sensor chip protein G (Cytiva) to a surface density of 1,200–1,600 response units following the immobilization protocols provided by Cytiva. The kinetic constants were determined by a single-cycle kinetics method by the injection of five different concentrations (twofold dilution series) of each peptide at a flow rate of 30 μL/min. The resulting sensorgrams were fitted to the standard 1:1 interaction model and analyzed using Biacore evaluation software. […]

[3] = human serum, 37 °C, LC/MS, relative to internal standard peptide, n = 3, read-out: half-life in human serum (t1/2) (converted)
[4] = serum, half-life in human serum (t1/2)
[5] = human serum, 37 °C, LC/MS, relative to internal standard peptide, n = 3

Compound	IC50 [1]	half-life [2, 3]	Kd (Fc-tagged human IFNGR1)	kon (Fc-tagged human IFNGR1)	half-life [2, 4]	half-life in human serum (t1/2) [2, 5]
CC(C)[C@@H]1NC(=O)[C@@H](Cc2ccc(O)cc2)NC(=O)CSC[C@H](C(N)=O)NC(=O)[C@H](CC(N)=O)NC(=O)[C@H](CO)NC(=O)[C@H](CCCNC(=N)N)NC(=O)[C@H](CO)NC(=O)[C@H]2C[C@@H](C2)NC(=O)[C@H](CC(N)=O)NC(=O)[C@H]([C@@H](C)O)NC(=O)[C@H](Cc2c[nH]cn2)NC(=O)[C@H](CCCNC(=N)N)NC(=O)[C@H](CCCNC(=N)N)NC(=O)[C@@H]2CCC[C@@H]2NC(=O)[C@@H]2CCCN2C1=O [IA2, ^AcyVPβ^1RRHTNγ^2SRSNc-NH2] ({CH2CO}-[dY]VP[X1]RRHTN[Acbc(trans-1,3)]SRSN[dC]-NH2; thioether N-15)	330 ± 20 nM	> 2.6 h	150 ± 40 nM	120000 ± 50000 M⁻¹ s⁻¹	–	–
CC(C)[C@@H]1NC(=O)[C@@H](Cc2ccc(O)cc2)NC(=O)CSC[C@H](C(N)=O)NC(=O)[C@H](CCCNC(=N)N)NC(=O)[C@H](CO)NC(=O)[C@H](CCCNC(=N)N)NC(=O)[C@H](Cc2c[nH]cn2)NC(=O)CNC(=O)[C@H]2C[C@@H](C2)NC(=O)[C@H](Cc2c[nH]cn2)NC(=O)[C@H](CC(N)=O)NC(=O)[C@H](CCCNC(=N)N)NC(=O)[C@H](CCCNC(=N)N)NC(=O)[C@@H]2CCC[C@@H]2NC(=O)[C@H](C)NC1=O [IB1γ^19γ^2, ^AcyVAβ^1RRNHγ^2GHRSRc-NH2] ({CH2CO}-[dY]VA[X1]RRNH[Acbc(trans-1,3)]GHRSR[dC]-NH2; thioether N-15)	550 ± 30 nM	0.77 ± 0.02 h	47 ± 15 nM	250000 ± 250000 M⁻¹ s⁻¹	–	–
CC(C)[C@@H]1NC(=O)[C@@H](Cc2ccc(O)cc2)NC(=O)CSC[C@H](C(N)=O)NC(=O)[C@H](C)NC(=O)[C@H](Cc2c[nH]cn2)NC(=O)[C@H](CCCNC(=N)N)NC(=O)[C@H](CCCNC(=N)N)NC(=O)CNC(=O)[C@H]2C[C@H](C2)NC(=O)[C@H](Cc2c[nH]cn2)NC(=O)[C@H](CC(N)=O)NC(=O)[C@H](CCCNC(=N)N)NC(=O)[C@H](CCCNC(=N)N)NC(=O)[C@@H]2CCC[C@@H]2NC(=O)[C@H](C)NC1=O [IB2, ^AcyVAβ^1RRNHγ^1GRRHAc-NH2] ({CH2CO}-[dY]VA[X1]RRNH[Acbc(cis-1,3)]GRRHA[dC]-NH2; thioether N-15)	79 ± 11 nM	< 1.3 h	31 ± 8 nM	200000 ± 90000 M⁻¹ s⁻¹	–	1.3 ± 0.1 h
CC(C)[C@@H]1NC(=O)[C@@H](Cc2ccc(O)cc2)NC(=O)CSC[C@H](C(N)=O)NC(=O)[C@H](C)NC(=O)[C@H](CO)NC(=O)[C@H](CCCN)NC(=O)[C@H](CCCN)NC(=O)CNC(=O)[C@H]2C[C@H](C2)NC(=O)[C@H](Cc2c[nH]cn2)NC(=O)[C@H](CC(N)=O)NC(=O)[C@H](CCCNC(=N)N)NC(=O)[C@H](CCCNC(=N)N)NC(=O)[C@@H]2CCC[C@@H]2NC(=O)[C@H](C)NC1=O [IB3Orn, ^AcyVAβ^1RRNHγ^1GOOSAc-NH2] ({CH2CO}-[dY]VA[X1]RRNH[Acbc(cis-1,3)]G[Orn][Orn]SA[dC]-NH2; thioether N-15)	70 ± 4 nM	–	34 ± 5 nM	950000 ± 680000 M⁻¹ s⁻¹	42 ± 2 h	–

The next compounds have a lower IC50 [1] than those just listed; values first:

IC50 [1]	half-life [2, 3]	Kd (Fc-tagged human IFNGR1)	kon (Fc-tagged human IFNGR1)	half-life [2, 4]	half-life in human serum (t1/2) [2, 5]	Compound
47 ± 15 nM	< 1.3 h	22 ± 11 nM	160000 ± 190000 M⁻¹ s⁻¹	–	1.1 ± 0.0 h	CC(C)[C@@H]1NC(=O)[C@@H](Cc2ccc(O)cc2)NC(=O)CSC[C@H](C(N)=O)NC(=O)[C@H](CC(N)=O)NC(=O)[C@H]2C[C@@H](C2)NC(=O)[C@H](CCCNC(=N)N)NC(=O)[C@@H]2CCCN2C(=O)[C@H]([C@@H](C)O)NC(=O)[C@H](CCCNC(=N)N)NC(=O)[C@H](CCCNC(=N)N)NC(=O)[C@H](CO)NC(=O)[C@H](CCCNC(=N)N)NC(=O)[C@H](CCCNC(=N)N)NC(=O)[C@@H]2CCC[C@@H]2NC(=O)[C@@H]2CCCN2C1=O [IB4, ^AcyVPβ^1RRSRRTPRγ^2Nc-NH2] ({CH2CO}-[dY]VP[X1]RRSRRTPR[Acbc(trans-1,3)]N[dC]-NH2; thioether N-15)
17 ± 3 nM	–	11 ± 3 nM	1.4e+06 ± 900000 M⁻¹ s⁻¹	33 ± 1 h	–	CC(C)[C@@H]1NC(=O)[C@@H](Cc2ccc(O)cc2)NC(=O)CSC[C@H](C(N)=O)NC(=O)[C@H](CCCN)NC(=O)[C@H](CO)NC(=O)[C@H](CCCN)NC(=O)[C@H](Cc2c[nH]cn2)NC(=O)CNC(=O)[C@H]2C[C@H](C2)NC(=O)[C@H](Cc2c[nH]cn2)NC(=O)[C@H](CC(N)=O)NC(=O)[C@H](CCCNC(=N)N)NC(=O)[C@H](CCCNC(=N)N)NC(=O)[C@@H]2CCC[C@@H]2NC(=O)[C@H](C)NC1=O [IB1Orn, ^AcyVAβ^1RRNHγ^1GHOSOc-NH2] ({CH2CO}-[dY]VA[X1]RRNH[Acbc(cis-1,3)]GH[Orn]S[Orn][dC]-NH2; thioether N-15)
11 ± 4 nM	0.17 ± 0.01 h	9.5 ± 4 nM	110000 ± 20000 M⁻¹ s⁻¹	–	–	CC(C)[C@@H]1NC(=O)[C@@H](Cc2ccc(O)cc2)NC(=O)CSC[C@H](C(N)=O)NC(=O)[C@H](CCCNC(=N)N)NC(=O)[C@H](CO)NC(=O)[C@H](CCCNC(=N)N)NC(=O)[C@H](Cc2c[nH]cn2)NC(=O)CNC(=O)[C@H](C)NC(=O)[C@H](Cc2c[nH]cn2)NC(=O)[C@H](CC(N)=O)NC(=O)[C@H](CCCNC(=N)N)NC(=O)[C@H](CCCNC(=N)N)NC(=O)[C@@H]2CCC[C@@H]2NC(=O)[C@H](C)NC1=O [IB1γ^19A, ^AcyVAβ^1RRNHA GHRSRc-NH2] ({CH2CO}-[dY]VA[X1]RRNHAGHRSR[dC]-NH2; thioether N-15)

— paper PMC11229689, “In Vitro Selection of Macrocyclic L-α/D-α/β/γ-Hybrid Peptides Targeting IFN-γ/IFNGR1 Protein–Protein Interaction” (Journal of the American Chemical Society, 2024)
